According to EP1077981B1, “NOVEL CEPHALOSPORIN COMPOUNDS, PROCESSES FOR PREPARATION THEREOF AND ANTIMICROBIAL COMPOSITIONS CONTAINING THE SAME” (LG CHEMICAL LIMITED, priority 1998, dated 1999):
≈ marks a conversion by molar mass, not a printed value. Read-outs that look alike come from different tables or passages of the source.

Assays:
[1] = Pharmacokinetic experiment (blood concentration by HPLC); format: in vivo, mice; details: male, mouse, blood, 20 mg/kg
Description: Test example 2: Pharmacokinetic experiment
Male mice, each of which has a body weight of […] were used in the present pharmacokinetic experiment. Test compounds were formulated into 1% of solution and then, the solution was administered by oral route and by injection with a dose of 20mg/kg, respectively. At the fixed interval of time after administration, blood was gathered from the mice. Concentrations of test compounds in blood were measured by HPLC quantitative analysis and based on the results, pharmacokinetic parameters were calculated.

[2] = system: Staphylococcus aureus 6538p; assay: MIC against standard strains (agar dilution); format: cell-based; details: Staphylococcus aureus 6538p; Mueller-Hinton agar, 20 hours at 37°C; read-out: MIC
How it was run: (§1)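 Minimum inhibitory concentrations come from Mueller-Hinton agar plates with 2-fold compound dilutions, inoculated at 10^7 cfu/mℓ and held 20 hours at 37°C.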

Escherichia coli 851E = assay: MIC against standard strains (agar dilution); format: cell-based; details: Escherichia coli, 851E, 20 h
How it was run: as §1

[3] = system: Moraxella catarrhalis 25240; assay: MIC against standard strains (agar dilution); format: cell-based; details: Moraxella catarrhalis 25240; Mueller-Hinton agar, 20 hours at 37°C; read-out: MIC
How it was run: as §1

[4] = system: Pseudomonas aeruginosa 1912E; assay: MIC against standard strains (agar dilution); format: cell-based; details: Pseudomonas aeruginosa 1912E; Mueller-Hinton agar, 20 hours at 37°C; read-out: MIC
How it was run: as §1

[5] = system: Escherichia coli TEM3 3455E; assay: MIC against standard strains (agar dilution); format: cell-based; details: TEM33455E, 20 h
How it was run: as §1

[6] = system: Citrobacter diversus 2046E; assay: MIC against standard strains (agar dilution); format: cell-based; details: Citrobacter koseri; Citrobacter diversus 2046E; Mueller-Hinton agar, 20 hours at 37°C; read-out: MIC
How it was run: as §1

Escherichia coli 10536 = assay: MIC against standard strains (agar dilution); format: cell-based; details: Escherichia coli 10536; Mueller-Hinton agar, 20 hours at 37°C; read-out: MIC
How it was run: as §1

Staphylococcus aureus 77 = assay: MIC against standard strains (agar dilution); format: cell-based; details: Staphylococcus aureus 77; Mueller-Hinton agar, 20 hours at 37°C; read-out: MIC
How it was run: as §1

[7] = system: Klebsiella aerogenes SHV-1 1976E; assay: MIC against standard strains (agar dilution); format: cell-based; details: Klebsiella aerogenes, 20 h
How it was run: as §1

[8] = system: Staphylococcus epidermidi 887E; assay: MIC against standard strains (agar dilution); format: cell-based; details: Staphylococcus epidermidi 887E; Mueller-Hinton agar, 20 hours at 37°C; read-out: MIC
How it was run: as §1

[9] = system: Serratia marcescens 1826E; assay: MIC against standard strains (agar dilution); format: cell-based; details: Serratia marcescens 1826E; Mueller-Hinton agar, 20 hours at 37°C; read-out: MIC
How it was run: as §1

[10] = system: Enterococcus faecalis 29212; assay: MIC against standard strains (agar dilution); format: cell-based; details: Enterococcus faecalis 29212; Mueller-Hinton agar, 20 hours at 37°C; read-out: MIC
How it was run: as §1

[11] = system: Escherichia coli TEM9 2639E; assay: MIC against standard strains (agar dilution); format: cell-based; details: TEM92639E; Escherichia coli TEM9 2639E; Mueller-Hinton agar, 20 hours at 37°C; read-out: MIC
How it was run: as §1

[12] = system: Citrobacter freundii 8090; assay: MIC against standard strains (agar dilution); format: cell-based; details: Citrobacter freundii 8090; Mueller-Hinton agar, 20 hours at 37°C; read-out: MIC
How it was run: as §1

[13] = system: Klebsiella aerogenes K1+ 1082E; assay: MIC against standard strains (agar dilution); format: cell-based; details: Klebsiella aerogenes K1+ 1082E; Mueller-Hinton agar, 20 hours at 37°C; read-out: MIC
How it was run: as §1

[14] = system: Pseudomonas aeruginosa 6065Y; assay: MIC against standard strains (agar dilution); format: cell-based; details: Pseudomonas aeruginosa 6065Y; Mueller-Hinton agar, 20 hours at 37°C; read-out: MIC
How it was run: as §1

[15] = system: Escherichia coli TEM1 1193E; assay: MIC against standard strains (agar dilution); format: cell-based; details: TEM11193E, 20 h
How it was run: as §1

Proteus vulgaris 6059 = assay: MIC against standard strains (agar dilution); format: cell-based; details: Proteus vulgaris 6059; Mueller-Hinton agar, 20 hours at 37°C; read-out: MIC
How it was run: as §1

[16] = intravenous, Injection, read-out: average conc.
[17] = intravenous, Injection, read-out: blood concentration, mouse-1
[18] = intravenous, Injection, read-out: blood concentration, mouse-2
[19] = other: injection, Injection, read-out: average conc.
[20] = other: injection, Injection, read-out: blood concentration, mouse-1
[21] = other: injection, Injection, read-out: blood concentration, mouse-2
[22] = po, Oral administration, read-out: average conc.
[23] = po, Oral administration, read-out: blood concentration, mouse-1
[24] = po, Oral administration, read-out: blood concentration, mouse-2
[25] = po, Oral administration, read-out: blood concentration, mouse-3

`CO/N=C(\C(=O)NC1C(=O)N2C(C(=O)O)=C(Sc3cc(N)nc(N)n3)CSC12)c1csc(N)n1` (stereo not drawn) [Compound No. 25, 7-[(Z)-2-(2-amino-thiazol-4-yl)-2-methoxyimino-acetylamino]-3-(2,6-diamino-pyrimidin-4-ylsulfanyl)-8-oxo-5-thia-1-azabicyclo[4,2,0]oct-2-ene-2-carboxylic acid] showed a concentration at 1 min [1, 16] of 96400 ng/mL, a concentration at 1 min [1, 17] of 120000 ng/mL and a concentration at 1 min [1, 18] of 72800 ng/mL. It also gave a concentration at 5 min [1, 16] of 41200 ng/mL, a concentration at 5 min [1, 17] of 51700 ng/mL and a concentration at 5 min [1, 18] of 30700 ng/mL. For the same compound, the concentration at 10 min [1, 16] was 29100 ng/mL, the concentration at 10 min [1, 17] was 37700 ng/mL and the concentration at 10 min [1, 18] was 20400 ng/mL. The concentration at 120 min [1, 16] was 1800 ng/mL, the concentration at 120 min [1, 17] was 2200 ng/mL and the concentration at 120 min [1, 18] was 1300 ng/mL. The concentration at 180 min [1, 16] was 800 ng/mL, the concentration at 180 min [1, 17] was 1100 ng/mL and the concentration at 180 min [1, 18] was 600 ng/mL. It also gave a concentration at 240 min [1, 16] of 400 ng/mL, a concentration at 240 min [1, 17] of 500 ng/mL and a concentration at 240 min [1, 18] of 300 ng/mL. For the same compound, the concentration at 20 min [1, 19] was 17100 ng/mL, the concentration at 20 min [1, 20] was 21600 ng/mL and the concentration at 20 min [1, 21] was 12700 ng/mL. For the same compound, the concentration at 40 min [1, 19] was 9800 ng/mL, the concentration at 40 min [1, 20] was 12200 ng/mL and the concentration at 40 min [1, 21] was 7300 ng/mL. It also gave a concentration at 60 min [1, 19] of 6100 ng/mL, a concentration at 60 min [1, 20] of 7600 ng/mL and a concentration at 60 min [1, 21] of 4600 ng/mL. For the same compound, the concentration at 90 min [1, 19] was 3300 ng/mL, the concentration at 90 min [1, 20] was 4300 ng/mL and the concentration at 90 min [1, 21] was 2400 ng/mL. The concentration at 5 min [1, 22] was 90 ng/mL, the concentration at 5 min [1, 23] was 70 ng/mL and the concentration at 5 min [1, 24] was 130 ng/mL. The concentration at 5 min [1, 25] was 60 ng/mL, the concentration at 10 min [1, 22] was 200 ng/mL and the concentration at 10 min [1, 23] was 160 ng/mL. For the same compound, the concentration at 10 min [1, 24] was 270 ng/mL, the concentration at 10 min [1, 25] was 140 ng/mL and the concentration at 20 min [1, 22] was 490 ng/mL. For the same compound, the concentration at 20 min [1, 23] was 280 ng/mL, the concentration at 20 min [1, 24] was 720 ng/mL and the concentration at 20 min [1, 25] was 270 ng/mL. It also gave a concentration at 40 min [1, 22] of 470 ng/mL, a concentration at 40 min [1, 23] of 270 ng/mL and a concentration at 40 min [1, 24] of 590 ng/mL. For the same compound, the concentration at 40 min [1, 25] was 350 ng/mL, the concentration at 60 min [1, 22] was 440 ng/mL and the concentration at 60 min [1, 23] was 160 ng/mL. It also gave a concentration at 60 min [1, 24] of 610 ng/mL, a concentration at 60 min [1, 25] of 260 ng/mL and a concentration at 90 min [1, 22] of 570 ng/mL. For the same compound, the concentration at 90 min [1, 23] was 70 ng/mL, the concentration at 90 min [1, 24] was 840 ng/mL and the concentration at 90 min [1, 25] was 290 ng/mL. The concentration at 120 min [1, 22] was 360 ng/mL, the concentration at 120 min [1, 23] was 60 ng/mL and the concentration at 120 min [1, 24] was 480 ng/mL. For the same compound, the concentration at 120 min [1, 25] was 240 ng/mL, the concentration at 180 min [1, 22] was 410 ng/mL and the concentration at 180 min [1, 23] was 60 ng/mL. It also gave a concentration at 180 min [1, 24] of 590 ng/mL, a concentration at 180 min [1, 25] of 240 ng/mL and a concentration at 240 min [1, 22] of 230 ng/mL. It also gave a concentration at 240 min [1, 23] of 60 ng/mL, a concentration at 240 min [1, 24] of 220 ng/mL and a concentration at 240 min [1, 25] of 230 ng/mL. The MIC [2] was 1 µg/mL (≈ 1.91 µM), the MIC (Escherichia coli 851E) was 0.063 µg/mL (≈ 0.12 µM) and the MIC [3] was ≤ 0.008 µg/mL. For the same compound, the MIC [4] was 16 µg/mL (≈ 30.6 µM), the MIC [5] was 8 µg/mL (≈ 15.3 µM) and the MIC [6] was > 64 µg/mL. It also gave an MIC (Escherichia coli 10536) of 0.063 µg/mL (≈ 0.12 µM), an MIC (Staphylococcus aureus 77) of 4 µg/mL (≈ 7.64 µM) and an MIC [7] of 0.25 µg/mL (≈ 0.477 µM). The MIC [8] was 8 µg/mL (≈ 15.3 µM), the MIC [9] was 2 µg/mL (≈ 3.82 µM) and the MIC [10] was > 64 µg/mL. For the same compound, the MIC [11] was 32 µg/mL (≈ 61.1 µM), the MIC [12] was 1 µg/mL (≈ 1.91 µM) and the MIC [13] was > 64 µg/mL. It also gave an MIC [14] of 64 µg/mL (≈ 122 µM), an MIC [15] of 0.25 µg/mL (≈ 0.477 µM) and an MIC (Proteus vulgaris 6059) of 0.016 µg/mL (≈ 0.0306 µM).
